The source of these data is patent publication US12662491B2 (Redona Therapeutics, Inc., priority 2020, dated 2026).

The structures appear in SMILES notation. Bounds are passed on as bounds.

The target of the assay is T1, Zcchc11 enzyme (Homo sapiens, UniProt Q5TAX3).
T1 construct: made in house; host or cells: HEK293 cells (Zcchc11); E. coli Rosetta II (LIN28A)
T1 sequence (Q5TAX3 212-1420): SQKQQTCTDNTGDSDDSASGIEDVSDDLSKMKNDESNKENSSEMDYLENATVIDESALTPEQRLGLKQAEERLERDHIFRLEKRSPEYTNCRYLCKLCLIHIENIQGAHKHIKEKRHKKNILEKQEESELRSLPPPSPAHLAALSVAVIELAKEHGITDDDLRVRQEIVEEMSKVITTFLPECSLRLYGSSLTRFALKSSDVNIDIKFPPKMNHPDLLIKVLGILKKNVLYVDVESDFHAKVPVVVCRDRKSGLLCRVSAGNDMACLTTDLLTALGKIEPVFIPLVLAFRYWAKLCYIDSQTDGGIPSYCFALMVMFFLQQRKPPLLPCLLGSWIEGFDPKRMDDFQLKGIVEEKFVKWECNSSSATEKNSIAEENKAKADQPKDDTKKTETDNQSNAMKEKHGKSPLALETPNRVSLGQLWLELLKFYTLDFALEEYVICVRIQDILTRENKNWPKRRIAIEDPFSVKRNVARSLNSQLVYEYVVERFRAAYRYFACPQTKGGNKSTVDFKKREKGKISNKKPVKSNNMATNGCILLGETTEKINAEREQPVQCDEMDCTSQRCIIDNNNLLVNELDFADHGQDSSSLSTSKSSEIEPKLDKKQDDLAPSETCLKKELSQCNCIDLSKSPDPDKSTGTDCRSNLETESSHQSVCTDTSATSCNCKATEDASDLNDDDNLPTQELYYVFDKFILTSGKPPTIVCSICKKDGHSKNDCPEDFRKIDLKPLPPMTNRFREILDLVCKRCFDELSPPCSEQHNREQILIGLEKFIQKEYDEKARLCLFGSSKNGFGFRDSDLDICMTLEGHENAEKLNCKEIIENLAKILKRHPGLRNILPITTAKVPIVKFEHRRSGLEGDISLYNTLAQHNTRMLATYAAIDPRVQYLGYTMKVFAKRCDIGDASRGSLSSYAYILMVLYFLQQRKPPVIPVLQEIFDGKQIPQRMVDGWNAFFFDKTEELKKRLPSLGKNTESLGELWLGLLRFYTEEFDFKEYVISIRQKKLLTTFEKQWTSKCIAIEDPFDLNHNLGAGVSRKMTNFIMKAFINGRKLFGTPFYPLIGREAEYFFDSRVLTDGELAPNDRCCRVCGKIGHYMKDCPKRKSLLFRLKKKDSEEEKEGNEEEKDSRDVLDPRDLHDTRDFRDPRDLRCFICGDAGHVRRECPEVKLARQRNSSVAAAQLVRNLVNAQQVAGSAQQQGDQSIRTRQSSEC
The assay is described as follows: TUTase assay (Zcchc11 assay, Lin28a-dependent polyuridylation of pre-let-7). The format is biochemical. The settings on record: LIN28A 10 nM, Zcchc11 0.2 nM, 5′-fluorescein pre-let-7 miRNA 2 nM, UTP 5 uM, room temperature, 30 minutes pre-incubation; read-out: Potency Lin28a-dep Z11 IC50. The method in brief:
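Potency is measured as inhibition of LIN28A-driven U-tail addition to 2 nM pre-let-7 by 0.2 nM HEK293-derived Zcchc11 fragment with 5 uM UTP at room temperature. Tail growth appears as fluorescein quenching by an annealing rhodamine-A20 probe.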

For the compound `Cc1cccnc1OC[C@H]1CCCN1c1c(F)cc2c(=O)c(C(=O)O)cn(-c3ccc(O)cc3F)c2c1F` [Example 20, (R)-6,8-difluoro-1-(2-fluoro-4-hydroxyphenyl)-7-(2-(((3-methylpyridin-2-yl)oxy)methyl)pyrrolidin-1-yl)-4-oxo-1,4-dihydroquinoline-3-carboxylic acid], the IC50 (in general, the concentration that gives 50% inhibition) was not above 1000 nM.

`O=C(O)c1cn(-c2ccc(OCCO)cc2)c2cc(N3CCC[C@@H]3COc3ncccc3Br)c(F)cc2c1=O` [Example 21, (R)-7-(2-(((3-bromopyridin-2-yl)oxy)methyl)pyrrolidin-1-yl)-6-fluoro-1-(4-(2-hydroxyethoxy)phenyl)-4-oxo-1,4-dihydroquinoline-3-carboxylic acid]: the IC50 was not above 1000 nM.

For `O=C(O)c1cn(-c2ccc(O)cc2F)c2cc(N3CCC[C@@H]3COc3ncccn3)c(F)cc2c1=O` [Example 22, (R)-6-fluoro-1-(2-fluoro-4-hydroxyphenyl)-4-oxo-7-(2-((pyrimidin-2-yloxy)methyl)pyrrolidin-1-yl)-1,4-dihydroquinoline-3-carboxylic acid], the IC50 was 1000 to 10000 nM.

Regarding `Cc1ccnn(C[C@H]2CCCN2c2cc3c(cc2F)c(=O)c(C(=O)O)cn3-c2ccc(O)cc2)c1=O` [Example 23, (R)-6-fluoro-1-(4-hydroxyphenyl)-7-(2-((5-methyl-6-oxopyridazin-1(6H)-yl)methyl)pyrrolidin-1-yl)-4-oxo-1,4-dihydroquinoline-3-carboxylic acid], the IC50 is not above 1000 nM.

As for `CC1(n2cc(C(=O)O)c(=O)c3cc(Cl)c(N4C(=O)CC[C@@H]4COc4ccccn4)cc32)CC1` [Example 24, (R)-6-chloro-1-(1-methylcyclopropyl)-4-oxo-7-(2-oxo-5-((pyridin-2-yloxy)methyl)pyrrolidin-1-yl)-1,4-dihydroquinoline-3-carboxylic acid], the IC50 was more than 50000 nM.

For `COCC1CC(n2cc(C(=O)O)c(=O)c3cc(F)c(N4CCC[C@@H]4COc4ccccn4)cc32)C1` (stereo partly drawn) [Example 25, 6-fluoro-1-[3-(methoxymethyl)cyclobutyl]-4-oxo-7-[(2R)-2-[(pyridin-2-yloxy)methyl]pyrrolidin-1-yl]-1,4-dihydroquinoline-3-carboxylic acid], the IC50 was in the range of 10000 to 50000 nM.

Regarding `CS(=O)(=O)Nc1ccc(-n2cc(C(=O)O)c(=O)c3cc(Cl)c(N4CCC[C@@H]4COc4ncccc4Cl)cc32)cn1` [Example 26, 6-chloro-7-[(2R)-2-{[(3-chloropyridin-2-yl)oxy]methyl}pyrrolidin-1-yl]-1-(6-methanesulfonamidopyridin-3-yl)-4-oxo-1,4-dihydroquinoline-3-carboxylic acid], the concentration for half-maximal inhibition (IC50) is not above 1000 nM.

As to `O=C(O)c1cn(-c2cncc(O)n2)c2cc(N3CCC[C@@H]3COc3ccccn3)c(F)cc2c1=O` [Example 27, (R)-6-fluoro-1-(6-hydroxypyrazin-2-yl)-4-oxo-7-(2-((pyridin-2-yloxy)methyl)pyrrolidin-1-yl)-1,4-dihydroquinoline-3-carboxylic acid], the IC50 is 1000 to 10000 nM.

As for `NC1CN(c2ccc(-n3cc(C(=O)O)c(=O)c4cc(Cl)c(N5CCC[C@@H]5COc5ncccc5Cl)cc43)cn2)C1` [Example 28, (R)-1-(6-(3-aminoazetidin-1-yl)pyridin-3-yl)-6-chloro-7-(2-(((3-chloropyridin-2-yl)oxy)methyl)pyrrolidin-1-yl)-4-oxo-1,4-dihydroquinoline-3-carboxylic acid], the half-inhibitory concentration (IC50) is not above 1000 nM.

Turning to `O=C(O)c1cn(C2CC2)c2c(F)c(N3CCC[C@@H]3COc3cccnn3)c(F)cc2c1=O` [Example 29, (R)-1-cyclopropyl-6,8-difluoro-4-oxo-7-(2-((pyridazin-3-yloxy)methyl)pyrrolidin-1-yl)-1,4-dihydroquinoline-3-carboxylic acid], the 50% inhibitory concentration (IC50) was in the range of 1000 to 10000 nM.

Turning to `COC1CC(n2cc(C(=O)O)c(=O)c3cc(F)c(N4CCC[C@@H]4COc4ncccc4C)cc32)C1` (stereo partly drawn) [Example 30, (R)-6-fluoro-1-(3-methoxycyclobutyl)-7-(2-(((3-methylpyridin-2-yl)oxy)methyl)pyrrolidin-1-yl)-4-oxo-1,4-dihydroquinoline-3-carboxylic acid], the 50% inhibitory concentration (IC50) was not above 1000 nM.

`CCS(=O)(=O)Nc1ccc(-n2cc(C(=O)O)c(=O)c3cc(Cl)c(N4CCC[C@@H]4COc4ncccc4Cl)cc32)cc1` [Example 31, (R)-6-chloro-7-(2-(((3-chloropyridin-2-yl)oxy)methyl)pyrrolidin-1-yl)-1-(4-(ethylsulfonamido)phenyl)-4-oxo-1,4-dihydroquinoline-3-carboxylic acid]: the IC50 is not above 1000 nM.

As to `O=C(O)c1cn(-c2ccc3c(c2F)CCN3)c2cc(N3CCC[C@@H]3COc3ccccn3)c(F)cc2c1=O` [Example 32, (R)-6-fluoro-1-(4-fluoroindolin-5-yl)-4-oxo-7-(2-((pyridin-2-yloxy)methyl)pyrrolidin-1-yl)-1,4-dihydroquinoline-3-carboxylic acid], the concentration for half-maximal inhibition (IC50) was not above 1000 nM.

For the compound `O=C(O)c1cn(-c2cnc(O)cn2)c2cc(N3CCC[C@@H]3COc3ccccn3)c(Cl)cc2c1=O` [Example 33, 6-chloro-1-(5-hydroxypyrazin-2-yl)-4-oxo-7-[(2R)-2-[(pyridin-2-yloxy)methyl]pyrrolidin-1-yl]-1,4-dihydroquinoline-3-carboxylic acid], the IC50 was not above 1000 nM.

As for `O=C(O)c1cn(C2CN(CCO)C2)c2cc(N3CCC[C@@H]3COc3ncccc3Cl)c(Cl)cc2c1=O` [Example 34, 6-Chloro-7-[(2R)-2-{[(3-chloropyridin-2-yl)oxy]methyl}pyrrolidin-1-yl]-1-[1-(2-hydroxyethyl)azetidin-3-yl]-4-oxo-1,4-dihydroquinoline-3-carboxylic acid], the half-inhibitory concentration (IC50) is 1000 to 10000 nM.

`Cc1cccnc1OC[C@H]1CCCN1c1cc2c(cc1C#N)c(=O)c(C(=O)O)cn2C1(C)CC1` [Example 35, 6-Cyano-1-(1-methylcyclopropyl)-7-[(2R)-2-{[(3-methylpyridin-2-yl)oxy]methyl}pyrrolidin-1-yl]-4-oxo-1,4-dihydroquinoline-3-carboxylic acid]: the IC50 is not above 1000 nM.

For the compound `CC(=O)N1CC(n2cc(C(=O)O)c(=O)c3cc(Cl)c(N4CCC[C@@H]4COc4ncccc4C)cc32)C1` [Example 36, 1-(1-Acetylazetidin-3-yl)-6-chloro-7-[(2R)-2-{[(3-methylpyridin-2-yl)oxy]methyl}pyrrolidin-1-yl]-4-oxo-1,4-dihydroquinoline-3-carboxylic acid], the IC50 is 1000 to 10000 nM.

For the compound `COCCN1CC(C)(n2cc(C(=O)O)c(=O)c3cc(Cl)c(N4CCC[C@@H]4COc4ncccc4Cl)cc32)C1` [Example 37, 6-Chloro-7-[(2R)-2-{[(3-chloropyridin-2-yl)oxy]methyl}pyrrolidin-1-yl]-1-[1-(2-methoxyethyl)-3-methylazetidin-3-yl]-4-oxo-1,4-dihydroquinoline-3-carboxylic acid], the IC50 lay within 1000 to 10000 nM.

In the case of `COCCN1CCC(n2cc(C(=O)O)c(=O)c3cc(Cl)c(N4CCC[C@@H]4COc4ncccc4Cl)cc32)C1` (stereo partly drawn) [Example 38, 6-Chloro-7-[(2R)-2-{[(3-chloropyridin-2-yl)oxy]methyl}-pyrrolidin-1-yl]-1-[1-(2-methoxyethyl)pyrrolidin-3-yl]-4-oxo-1,4-dihydroquinoline-3-carboxylic acid], the 50% inhibitory concentration (IC50) fell in the range of 1000 to 10000 nM.

As to `CN(C)CCN1CCC(n2cc(C(=O)O)c(=O)c3cc(Cl)c(N4CCC[C@@H]4COc4ncccc4Cl)cc32)C1` (stereo partly drawn) [Example 39, 6-chloro-7-[(2R)-2-{[(3-chloropyridin-2-yl)oxy]methyl}pyrrolidin-1-yl]-1-{1-[2-(dimethylamino)ethyl]pyrrolidin-3-yl}-4-oxo-1,4-dihydroquinoline-3-carboxylic acid], the IC50 is 10000 to 50000 nM.

Take `Nc1ccc(-n2cc(C(=O)O)c(=O)c3cc(Cl)c(N4CCC[C@@H]4COc4ncccc4Cl)cc32)cn1` [Example 40, (R)-1-(6-aminopyridin-3-yl)-6-chloro-7-(2-(((3-chloropyridin-2-yl)oxy)methyl)pyrrolidin-1-yl)-4-oxo-1,4-dihydroquinoline-3-carboxylic acid]: the IC50 is not above 1000 nM.
